Results taken from patent publication US20170305922A1, “CARM1 INHIBITORS AND USES THEREOF” (Epizyme, Inc., priority 2014, published 2017).

Molecular target: T1, Human CARM1 (PRMT4) (Homo sapiens, UniProt Q86X55)
T1 construct: Flag-CARM1-His was eluted with 200 ug/ml FLAG peptide in buffer A; made in house; host or cells: HEK 293F cells infected with recombinant baculovirus (pFastBacMam)
T1 sequence (Q86X55 1-585 isoform Q86X55-1): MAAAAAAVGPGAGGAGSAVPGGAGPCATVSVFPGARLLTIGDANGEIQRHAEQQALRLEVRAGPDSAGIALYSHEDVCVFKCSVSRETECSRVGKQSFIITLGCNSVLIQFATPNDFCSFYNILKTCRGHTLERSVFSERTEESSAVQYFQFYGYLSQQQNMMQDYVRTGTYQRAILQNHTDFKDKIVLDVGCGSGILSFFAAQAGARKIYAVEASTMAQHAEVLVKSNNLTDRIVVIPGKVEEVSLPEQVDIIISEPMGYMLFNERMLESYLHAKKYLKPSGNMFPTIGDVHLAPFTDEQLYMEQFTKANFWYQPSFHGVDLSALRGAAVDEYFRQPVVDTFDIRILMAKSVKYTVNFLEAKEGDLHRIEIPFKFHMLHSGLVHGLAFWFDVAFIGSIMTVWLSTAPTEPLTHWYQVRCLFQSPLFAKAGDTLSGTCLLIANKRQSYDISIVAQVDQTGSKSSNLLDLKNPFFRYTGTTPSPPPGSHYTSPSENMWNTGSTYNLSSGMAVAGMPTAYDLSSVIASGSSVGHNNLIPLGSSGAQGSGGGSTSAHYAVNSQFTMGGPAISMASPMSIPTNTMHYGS
Experiment: CARM1 enzyme assay on peptide substrates (3H-SAM Flashplate)
Conditions: Biochemical assay; CARM1 0.25 nM, 3H-SAM 30 nM, peptide 250 nM; read-out: Biochem IC50

| SMILES | IC50 [nM] |
| --- | --- |
| CCn1ncc(Cl)c1-c1nc(-c2cc(OC[C@H](O)CNC)ccc2Cl)nc(N2Cc3cncnc3C2)c1C [Example 76] | 4.8 |
| CNC[C@@H](O)COc1ccc(Cl)c(-c2nc(-c3c(C)noc3C)c(C)c(N3CC4(C3)CC(F)(F)C4)n2)c1 [Example 78] | 5.6 |
| CNC[C@@H](O)COc1ccc(Cl)c(-c2nc(-c3c(C)noc3C)c(C)c(N3CC4(CC(OC)C4)C3)n2)c1 [Example 79] | 9.3 |
| CNC[C@@H](O)COc1ccc(Cl)c(-c2nc(-c3c(C)cnn3C)c(C)c(N3CC4(CCN(C(=O)OC)CC4)C3)n2)c1 [Example 80] | 8.8 |
| CNC[C@@H](O)COc1ccc(Cl)c(-c2nc(-c3c(C)cnn3C)c(C)c(N3Cc4cncnc4C3)n2)c1 [Example 81] | 3.8 |
| CNC[C@@H](O)COc1ccc(Cl)c(-c2nc(C#CC3CCN(C(=O)OC)CC3)c(C)c(-c3c(C)noc3C)n2)c1 [Example 86] | 97 |
| CCn1ncc(C)c1-c1nc(-c2cc(OC[C@H](O)CNC)ccc2Cl)nc(N2CC3(CCN(C(=O)OC)CC3)C2)c1C [Example 87] | 9 |
| CCn1ncc(C)c1-c1nc(-c2cc(OC[C@H](O)CNC)ccc2Cl)nc(N2Cc3cncnc3C2)c1C [Example 88] | 4.6 |
| CNC[C@@H](O)COc1ccc(Cl)c(-c2nc(-c3c(C)noc3C)c(C)c(N3CC4(CC(C(=O)N(C)C)C4)C3)n2)c1 [Example 91] | 5.5 |
| CNC[C@@H](O)COc1ccc(Cl)c(-c2nc(-c3c(C)noc3C)c(C)c(N3CC4(CCC(C#N)CC4)C3)n2)c1 [Example 92] | 5.2 |
| CNC[C@@H](O)COc1ccc(Cl)c(-c2nc(/C=C(\OC)C3CCN(C(=O)OC)CC3)c(C)c(-c3c(C)noc3C)n2)c1 [Example 95] | 11.2 |
| CNC[C@@H](O)COc1ccc(Cl)c(-c2nc(-c3c(C)noc3C)c(C)c(N3CC4(CCC(S(C)(=O)=O)CC4)C3)n2)c1 [Example 97] | 10.9 |
| CNC[C@@H](O)COc1ccc(Cl)c(-c2nc(-c3c(C)noc3C)c(C)c(N3CC4(CCN4C(=O)OC)C3)n2)c1 [Example 98] | 8.4 |
| CNC[C@@H](O)COc1ccc(Cl)c(-c2nc(-c3c(C)noc3C)c(C)c(N3CC4(CN(CC(F)(F)F)C4)C3)n2)c1 [Example 99] | 11 |

Now from value to compound:

| IC50 [nM] | SMILES |
| --- | --- |
| 3.7 | CCn1ncc(Cl)c1-c1nc(-c2cc(OC[C@H](O)CNC)ccc2Cl)nc(N2Cc3cccnc3C2)c1C [Example 77] |
| 2.1 | CNC[C@@H](O)COc1ccc(Cl)c(-c2nc(-c3c(C)cnn3C)c(C)c(N3Cc4cccnc4C3)n2)c1 [Example 82] |
| 3.3 | CNC[C@@H](O)COc1ccc(Cl)c(-c2nc(-c3c(C)noc3C)c(C)c(N3CC4(CCC(SC)CC4)C3)n2)c1 [Example 83] |
| 1.6 | CNC[C@@H](O)COc1ccc(Cl)c(-c2nc(-c3c(C)c(Cl)nn3C)c(C)c(N3Cc4cccnc4C3)n2)c1 [Example 84] |
| 1.1 | CNC[C@@H](O)COc1cccc(-c2nc(-c3c(C)c(Cl)nn3C)c(C)c(N3Cc4cccnc4C3)n2)c1 [Example 85] |
| 3.7 | CCn1ncc(C)c1-c1nc(-c2cc(OC[C@H](O)CNC)ccc2Cl)nc(N2Cc3cccnc3C2)c1C [Example 89] |
| 2.2 | CNC[C@@H](O)COc1ccc(Cl)c(-c2nc(-c3c(C)noc3C)c(C)c(N3Cc4nc(OC)nc(OC)c4C3)n2)c1 [Example 90] |
| 2.3 | CNC[C@@H](O)COc1ccc(Cl)c(-c2nc(-c3c(C)noc3C)c(C)c(N3Cc4ncnc(OC)c4C3)n2)c1 [Example 93] |
| 2.3 | CNC[C@@H](O)COc1ccc(Cl)c(-c2nc(-c3c(C)noc3C)c(C)c(N3Cc4ncnc(OCCOC)c4C3)n2)c1 [Example 94] |
| 2.1 | CNC[C@@H](O)COc1ccc(Cl)c(-c2nc(-c3c(C)noc3C)c(C)c(N3CC4(C3)CN(C3CC3)C4)n2)c1 [Example 96] |

Tested on: asymmetric di-methyl PABP1 in RKO cells
Experiment: RKO methylation assay: In Cell Western (ICW) for asymmetric di-methyl PABP1 (PABP1me2a)
Conditions: Homo sapiens, RKO, 48 h, Cellular-based (PABP1me2a) ICW (In Cell Western) assay
How it was run: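 In-cell western on compound-exposed RKO cells (48 hours): asymmetric di-methyl PABP1 detected by antibody at 800 nm, DNA content by DRAQ5 at 700 nm. Percent inhibition from signal ratios against DMSO (minimum) and 20 μM reference compound (maximum) wells; IC50 curves fitted from triplicates.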

| SMILES | IC50 [nM] |
| --- | --- |
| CCn1ncc(Cl)c1-c1nc(-c2cc(OC[C@H](O)CNC)ccc2Cl)nc(N2Cc3cncnc3C2)c1C [Example 76] | 268 |
| CNC[C@@H](O)COc1ccc(Cl)c(-c2nc(-c3c(C)noc3C)c(C)c(N3CC4(C3)CC(F)(F)C4)n2)c1 [Example 78] | 112 |
| CNC[C@@H](O)COc1ccc(Cl)c(-c2nc(-c3c(C)noc3C)c(C)c(N3CC4(CC(OC)C4)C3)n2)c1 [Example 79] | 60 |
| CNC[C@@H](O)COc1ccc(Cl)c(-c2nc(-c3c(C)cnn3C)c(C)c(N3CC4(CCN(C(=O)OC)CC4)C3)n2)c1 [Example 80] | 182 |
| CNC[C@@H](O)COc1ccc(Cl)c(-c2nc(-c3c(C)cnn3C)c(C)c(N3Cc4cncnc4C3)n2)c1 [Example 81] | 112 |
| CNC[C@@H](O)COc1ccc(Cl)c(-c2nc(C#CC3CCN(C(=O)OC)CC3)c(C)c(-c3c(C)noc3C)n2)c1 [Example 86] | 283 |
| CCn1ncc(C)c1-c1nc(-c2cc(OC[C@H](O)CNC)ccc2Cl)nc(N2CC3(CCN(C(=O)OC)CC3)C2)c1C [Example 87] | 205 |
| CCn1ncc(C)c1-c1nc(-c2cc(OC[C@H](O)CNC)ccc2Cl)nc(N2Cc3cncnc3C2)c1C [Example 88] | 222 |
| CNC[C@@H](O)COc1ccc(Cl)c(-c2nc(-c3c(C)noc3C)c(C)c(N3CC4(CC(C(=O)N(C)C)C4)C3)n2)c1 [Example 91] | 92 |
| CNC[C@@H](O)COc1ccc(Cl)c(-c2nc(-c3c(C)noc3C)c(C)c(N3CC4(CCC(C#N)CC4)C3)n2)c1 [Example 92] | 64 |
| CNC[C@@H](O)COc1ccc(Cl)c(-c2nc(/C=C(\OC)C3CCN(C(=O)OC)CC3)c(C)c(-c3c(C)noc3C)n2)c1 [Example 95] | 995 |
| CNC[C@@H](O)COc1ccc(Cl)c(-c2nc(-c3c(C)noc3C)c(C)c(N3CC4(CCC(S(C)(=O)=O)CC4)C3)n2)c1 [Example 97] | 394 |
| CNC[C@@H](O)COc1ccc(Cl)c(-c2nc(-c3c(C)noc3C)c(C)c(N3CC4(CCN4C(=O)OC)C3)n2)c1 [Example 98] | 99 |
| CNC[C@@H](O)COc1ccc(Cl)c(-c2nc(-c3c(C)noc3C)c(C)c(N3CC4(CN(CC(F)(F)F)C4)C3)n2)c1 [Example 99] | 39 |

The remaining lines, values ahead:

| IC50 [nM] | SMILES |
| --- | --- |
| 293 | CCn1ncc(Cl)c1-c1nc(-c2cc(OC[C@H](O)CNC)ccc2Cl)nc(N2Cc3cccnc3C2)c1C [Example 77] |
| 56 | CNC[C@@H](O)COc1ccc(Cl)c(-c2nc(-c3c(C)cnn3C)c(C)c(N3Cc4cccnc4C3)n2)c1 [Example 82] |
| 74 | CNC[C@@H](O)COc1ccc(Cl)c(-c2nc(-c3c(C)noc3C)c(C)c(N3CC4(CCC(SC)CC4)C3)n2)c1 [Example 83] |
| 28 | CNC[C@@H](O)COc1ccc(Cl)c(-c2nc(-c3c(C)c(Cl)nn3C)c(C)c(N3Cc4cccnc4C3)n2)c1 [Example 84] |
| 83 | CNC[C@@H](O)COc1cccc(-c2nc(-c3c(C)c(Cl)nn3C)c(C)c(N3Cc4cccnc4C3)n2)c1 [Example 85] |
| 165 | CCn1ncc(C)c1-c1nc(-c2cc(OC[C@H](O)CNC)ccc2Cl)nc(N2Cc3cccnc3C2)c1C [Example 89] |
| 32 | CNC[C@@H](O)COc1ccc(Cl)c(-c2nc(-c3c(C)noc3C)c(C)c(N3Cc4nc(OC)nc(OC)c4C3)n2)c1 [Example 90] |
| 33 | CNC[C@@H](O)COc1ccc(Cl)c(-c2nc(-c3c(C)noc3C)c(C)c(N3Cc4ncnc(OC)c4C3)n2)c1 [Example 93] |
| 44 | CNC[C@@H](O)COc1ccc(Cl)c(-c2nc(-c3c(C)noc3C)c(C)c(N3Cc4ncnc(OCCOC)c4C3)n2)c1 [Example 94] |
| 54 | CNC[C@@H](O)COc1ccc(Cl)c(-c2nc(-c3c(C)noc3C)c(C)c(N3CC4(C3)CN(C3CC3)C4)n2)c1 [Example 96] |
